Measurements published in US20260274892A1, “MACROCYCLIC BROAD SPECTRUM ANTIBIOTICS” (RQx Pharmaceuticals, Inc., priority 2017, published 2026).

System: Escherichia coli ATCC 25922
Experiment: Minimum inhibitory concentration (MIC), CLSI broth micro-dilution, E. coli
Type: cell-based
Settings: Escherichia coli
In short: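 Colonies grown 20 h at 35° C on Trypticase Soy agar (MRSA) or Luria agar (E. coli) were suspended in cation-adjusted Mueller Hinton broth with 0.002% Tween-80. Suspensions were added at OD600 0.0005 to 10-point twofold compound dilutions, then incubated 22 h at 35° C.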

[1] = ATCC25922, 22 h, Table 6, cation adjusted Mueller Hinton Broth + 0.002% Tween-80, 35° C.
[2] = ATCC25922, Table 6, cation adjusted Mueller Hinton Broth + 0.002% Tween-80, 35° C., 22 hours
[3] = ATCC25922, 22 h, Table 7, cation adjusted Mueller Hinton Broth + 0.002% Tween-80, 35° C.

Structure (SMILES)	MIC [1] [µM]	MIC [2] [µM]	other results
Cc1nc(-c2ccc(C3CCCCC3)cc2)nc(C)c1C(=O)N[C@@H](CCN)C(=O)N(C)[C@@H]1C(=O)N[C@@H](C)C(=O)N[C@H](C(=O)NCC#N)Cc2ccc(OCCN)c(c2)-c2cc1ccc2OCCN (racemic) [Compound 304, rac-(8S,11S,14S)-3,18-bis(2-aminoethoxy)-N-(cyanomethyl)-11-methyl-14-[methyl-[rac-(2S)-4-amino-2-[[2-(4-cyclohexylphenyl)-4,6-dimethyl-pyrimidine-5-carbonyl]amino]butanoyl]amino]-10,13-dioxo-9,12-diazatricyclo[13.3.1.12,6]icosa-1(18),2(20),3,5,15(19),16-hexaene-8-carboxamide]	0.13	–	–
Cc1nc(-c2ccc(OC3CCCCC3)cc2)nc(C)c1C(=O)N[C@@H](CC(N)=O)C(=O)N(C)[C@@H]1C(=O)N[C@@H](C)C(=O)N[C@H](C(=O)NCC#N)Cc2ccc(OCCN)c(c2)-c2cc1ccc2OCCN [Compound 506, (2S)-N-[(7S,10S,13S)-3,18-bis(2-aminoethoxy)-13-(cyanomethylcarbamoyl)-10-methyl-8,11-dioxo-9,12-diazatricyclo[13.3.1.12,6]icosa-1(19),2,4,6(20),15,17-hexaen-7-yl]-2-[[2-[4-(cyclohexoxy)phenyl]-4,6-dimethyl-pyrimidine-5-carbonyl]amino]-N-methyl-butanediamide]	–	0.83	–
CCCCc1ccc(-c2nc(C)c(C(=O)N[C@@H](CCN)C(=O)N(C)[C@@H]3C(=O)N[C@@H](C)C(=O)N[C@H](C(=O)NCC#N)Cc4ccc(OCCN)c(c4)-c4cc3ccc4OCCN)c(C)n2)nc1 (racemic) [Compound 293, rac-(8S,11S,14S)-3,18-bis(2-aminoethoxy)-N-(cyanomethyl)-11-methyl-14-[methyl-[rac-(2S)-4-amino-2-[[2-(5-butyl-2-pyridyl)-4,6-dimethyl-pyrimidine-5-carbonyl]amino]butanoyl]amino]-10,13-dioxo-9,12-diazatricyclo[13.3.1.12,6]icosa-1(18),2(20),3,5,15(19),16-hexaene-8-carboxamide]	–	1.5	–
Cc1nc(-c2ccc(C(C)(C)C)cc2)nc(C)c1C(=O)N[C@@H](CCN)C(=O)N(C)[C@@H]1C(=O)N[C@@H](C)C(=O)N[C@H](C(=O)NCC#N)Cc2cc(NC(N)=O)c(O)c(c2)-c2cc1ccc2OCCN (racemic) [Compound 618, rac-(8S,11S,14S)-18-(2-aminoethoxy)-N-(cyanomethyl)-3-hydroxy-11-methyl-14-[methyl-[rac-(2S)-4-amino-2-[[2-(4-tert-butylphenyl)-4,6-dimethyl-pyrimidine-5-carbonyl]amino]butanoyl]amino]-10,13-dioxo-4-ureido-9,12-diazatricyclo[13.3.1.12,6]icosa-1(18),2(20),3,5,15(19),16-hexaene-8-carboxamide]	–	–	MIC (ATCC25922, Table 7, cation adjusted Mueller Hinton Broth + 0.002% Tween-80, 35° C., 22 hours): 0.19 µM
Cc1nc(-c2ccc(C(C)(C)C)cc2)nc(C)c1C(=O)N[C@@H](CCN)C(=O)N(C)[C@@H]1C(=O)N[C@@H](C)C(=O)N[C@H](C(=O)NCC#N)Cc2ccc(N)c(c2)-c2cc1ccc2OCCN (racemic) [Compound 624, rac-(8S,11S,14S)-3-amino-18-(2-aminoethoxy)-N-(cyanomethyl)-11-methyl-14-[methyl-[rac-(2S)-4-amino-2-[[2-(4-tert-butylphenyl)-4,6-dimethyl-pyrimidine-5-carbonyl]amino]butanoyl]amino]-10,13-dioxo-9,12-diazatricyclo[13.3.1.12,6]icosa-1(18),2(20),3,5,15(19),16-hexaene-8-carboxamide]	–	–	MIC [3]: 0.38 µM
Cc1nc(N2CCC(OCCC(C)(C)C)CC2)nc(C)c1C(=O)N[C@@H](CCN)C(=O)N(C)[C@@H]1C(=O)N[C@@H](C)C(=O)N[C@H](C(=O)NCC#N)Cc2ccc(OCCN)c(c2)-c2cc1ccc2OCCN (racemic) [Compound 527, rac-(8S,11S,14S)-3,18-bis(2-aminoethoxy)-N-(cyanomethyl)-11-methyl-14-[methyl-[rac-(2S)-4-amino-2-[[2-[4-(3,3-dimethylbutoxy)-1-piperidyl]-4,6-dimethyl-pyrimidine-5-carbonyl]amino]butanoyl]amino]-10,13-dioxo-9,12-diazatricyclo[13.3.1.12,6]icosa-1(18),2(20),3,5,15(19),16-hexaene-8-carboxamide]	0.38	–	–
CC(=O)NCC[C@H](NC(=O)c1c(C)nc(-c2ccc(OC3CCCCC3)cc2)nc1C)C(=O)N(C)[C@@H]1C(=O)N[C@@H](C)C(=O)N[C@H](C(=O)NCC#N)Cc2ccc(OCCN)c(c2)-c2cc1ccc2OCCN [Compound 496, (8S,11S,14S)-14-[[(2S)-4-acetamido-2-[[2-[4-(cyclohexoxy)phenyl]-4,6-dimethyl-pyrimidine-5-carbonyl]amino]butanoyl]-methyl-amino]-3,18-bis(2-aminoethoxy)-N-(cyanomethyl)-11-methyl-10,13-dioxo-9,12-diazatricyclo[13.3.1.12,6]icosa-1(18),2(20),3,5,15(19),16-hexaene-8-carboxamide]	–	1	–
CNCCOc1ccc2cc1-c1cc(ccc1O)C[C@@H](C(=O)NCC#N)NC(=O)[C@H](C)NC(=O)[C@H]2N(C)C(=O)[C@H](CCN)NC(=O)c1c(C)nc(-c2ccc(C(C)(C)C)cc2)nc1C (racemic) [Compound 600, rac-(8S,11S,14S)-N-(cyanomethyl)-3-hydroxy-11-methyl-18-[2-(methylamino)ethoxy]-14-[methyl-[rac-(2S)-4-amino-2-[[2-(4-tert-butylphenyl)-4,6-dimethyl-pyrimidine-5-carbonyl]amino]butanoyl]amino]-10,13-dioxo-9,12-diazatricyclo[13.3.1.12,6]icosa-1(18),2(20),3,5,15(19),16-hexaene-8-carboxamide]	–	–	MIC [3]: 0.38 µM
Cc1nc(-c2ccc(C(C)(C)C)cc2)nc(C)c1C(=O)N[C@@H](COC(C)(C)C)C(=O)N[C@@H](CCN)C(=O)N(C)[C@@H]1C(=O)N[C@@H](C)C(=O)N[C@H](C(=O)NCC#N)Cc2ccc(OCCN)c(c2)-c2cc1ccc2OCCN (racemic) [Compound 466, rac-(8S,11S,14S)-3,18-bis(2-aminoethoxy)-N-(cyanomethyl)-11-methyl-14-[methyl-[rac-(2S)-4-amino-2-[[rac-(2S)-3-tert-butoxy-2-[[2-(4-tert-butylphenyl)-4,6-dimethyl-pyrimidine-5-carbonyl]amino]propanoyl]amino]butanoyl]amino]-10,13-dioxo-9,12-diazatricyclo[13.3.1.12,6]icosa-1(18),2(20),3,5,15(19),16-hexaene-8-carboxamide]	–	1.5	–
CCCCOc1c(F)c(F)c(-c2cc(C)c(C(=O)N[C@@H](CCN)C(=O)N(C)[C@@H]3C(=O)N[C@@H](C)C(=O)N[C@H](C(=O)NCC#N)Cc4ccc(OCCN)c(c4)-c4cc3ccc4OCCN)c(C)n2)c(F)c1F (racemic) [Compound 367, rac-(8S,11S,14S)-3,18-bis(2-aminoethoxy)-N-(cyanomethyl)-11-methyl-14-[methyl-[rac-(2S)-4-amino-2-[[6-(4-butoxy-2,3,5,6-tetrafluoro-phenyl)-2,4-dimethyl-pyridine-3-carbonyl]amino]butanoyl]amino]-10,13-dioxo-9,12-diazatricyclo[13.3.1.12,6]icosa-1(18),2(20),3,5,15(19),16-hexaene-8-carboxamide]	0.5	–	–
Cc1nc(-c2ccc(C(C)(C)C)cc2)nc(C)c1C(=O)N[C@@H](CCNS(N)(=O)=O)C(=O)N(C)[C@@H]1C(=O)N[C@@H](C)C(=O)N[C@H](C(=O)NCC#N)Cc2ccc(OC[C@H](O)CN)c(c2)-c2cc1ccc2OC[C@H](O)CN (racemic) [Compound 580, rac-(8S,11S,14S)-N-(cyanomethyl)-11-methyl-14-[methyl-[rac-(2S)-2-[[2-(4-tert-butylphenyl)-4,6-dimethyl-pyrimidine-5-carbonyl]amino]-4-(sulfamoylamino)butanoyl]amino]-10,13-dioxo-3,18-bis[rac-(2R)-3-amino-2-hydroxy-propoxy]-9,12-diazatricyclo[13.3.1.12,6]icosa-1(18),2(20),3,5,15(19),16-hexaene-8-carboxamide]	–	–	MIC [3]: 0.58 µM
Cc1nc(-c2ccc(OC3CCCCC3)cc2)nc(C)c1C(=O)N[C@@H](CCNC(=O)NO)C(=O)N(C)[C@@H]1C(=O)N[C@@H](C)C(=O)N[C@H](C(=O)NCC#N)Cc2ccc(OCCN)c(c2)-c2cc1ccc2OCCN [Compound 512, (8S,11S,14S)-3,18-bis(2-aminoethoxy)-N-(cyanomethyl)-14-[[(2S)-2-[[2-[4-(cyclohexoxy)phenyl]-4,6-dimethyl-pyrimidine-5-carbonyl]amino]-4-(hydroxycarbamoylamino)butanoyl]-methyl-amino]-11-methyl-10,13-dioxo-9,12-diazatricyclo[13.3.1.12,6]icosa-1(18),2(20),3,5,15(19),16-hexaene-8-carboxamide]	1	–	–
C[C@@H]1NC(=O)[C@@H](N(C)C(=O)[C@H](CCN)NC(=O)c2cnc(-c3ccc(C(C)(C)C)cc3)nc2OCC(=O)O)c2ccc(OCCN)c(c2)-c2cc(ccc2OCCN)C[C@@H](C(=O)NCC#N)NC1=O (racemic) [Compound 420, 2-[2-(4-tert-butylphenyl)-5-[[rac-(1S)-3-amino-1-[methyl-[rac-(7S,10S,13S)-3,18-bis(2-aminoethoxy)-13-(cyanomethylcarbamoyl)-10-methyl-8,11-dioxo-9,12-diazatricyclo[13.3.1.12,6]icosa-1(19),2,4,6(20),15,17-hexaen-7-yl]carbamoyl]propyl]carbamoyl]pyrimidin-4-yl]oxyacetic acid]	–	3	–
